Test results: patent US12428369B2, “Crystal form of aromatic vinyl derivatives, and preparation method therefor and use thereof” (GUANGZHOU MAXINOVEL PHARMACEUTICALS CO., LTD., priority 2020, dated 2025)
In brackets after ≈: the same amount, converted by molar mass.

Columns and labels:
Type in all cases: physicochemical
[1] = Dynamic vapor sorption (DVS) analysis; details: 25° C.
Description: The hygroscopic characteristics of the sample were tested when the humidity changed from 0% RH to 95% RH, and the dehumidifying characteristics of the sample were tested when the humidity changed from 95% RH to 0% RH. The humidity change in each step size was 5% RH, the equilibrium standard was that the weight change rate within 10 min was less than 0.01%/min, and the longest equilibrium time was 2 hours.
The hygroscopic characteristics of the sample were tested when the humidity changed from 0% RH to 95% RH, and the dehumidifying characteristics of the sample were tested when the humidity changed from 95% RH to 0% RH. The humidity change in each step size was 5% RH, the equilibrium standard was that the weight change rate within 5 min was less than 0.01%/min, and the longest equilibrium time was 2 hours.

[2] = Equilibrium solubility and dissolution rate in water, SGF, FaSSIF, FeSSIF; details: 37° C.
Description: To further study whether the equilibrium solubility and dissolution rate of crystal forms A, B and C are different in pure water and physiological related media in vivo, the equilibrium solubility and dissolution rate of […] crystal forms in water, simulated gastric fluid (SGF), fasted-state simulated intestinal fluid (FaSSIF) and fed state simulated intestinal fluid (FeSSIF) were tested respectively.

[3] = Solid-state stability: content and related substances by HPLC
Description: (§1) The samples of crystal forms A, B, and C were weighed and added to a 20 mL colorless transparent glass bottle, respectively, and the sample bottles were respectively placed under the corresponding influencing factors and acceleration conditions (the sample bottles under humidity conditions were sealed with tin foil and placed with holes, and the other samples were covered tightly and placed), taken out after being placed for 1 week and 2 weeks respectively, and the sample content and related substances under various conditions were detected by HPLC; according to the same method as above, samples were respectively weighed and placed under a corresponding influencing factor and accelerated condition, and were taken out after being placed for 2 weeks for observing the appearance and XRPD characterization of each sample, and the physical stability of each crystal form was examined, and the test methods are detailed in table 14 and table 15; at the same time, 2 samples of the crystal forms A, B, and C of the compound as shown in formula I were respectively weighed accurately into 20 mL colorless transparent glass bottles and covered tightly, placed in a −20° C. refrigerator, and taken out as a standard for HPLC analysis at 2 weeks, and the test results are detailed in table 16 and table 17.

[4] = Solid-state stability: appearance and crystal form (XRPD)
Description: as §1

[5] = Crystal form conversion on heating; details: heated to 200° C.
Description: 100 mg of the compound as shown in formula I sample was weighed and added to a bottle, then 20 times the volume of methanol was added to the bottle, and the mixture was magnetic stirred and slurried for 14 days at room temperature.
100 mg of the compound as shown in formula I sample was weighed and added to a glass bottle, and 100 times the volume of ethyl acetate (EA) and 20 times the volume of methanol (MeOH) were added to the bottle, and the sample was placed on a magnetic heating stirrer. The mixture was magnetic stirred to fully dissolve at a water bath of 50° C., filtered and the filtrate was slowly cooled to room temperature at a rate of 6° C./h, overnight, filtered under reduced pressure, and the solid was dried at 70° C. for 4 hours.
100 mg of the compound as shown in formula I sample was weighed and added to a bottle, then 30 times the volume of acetonitrile (ACN) (sample mass (g)×volume multiples) was added to the bottle, and the mixture was magnetic stirred and slurried for 2 days at room temperature, filtered under reduced pressure, and the solid was collected, and dried at 40° C. for 4 hours. The solid after drying was characterized, and the crystal form was defined as a crystal form VIII, and the XRPD pattern of the crystal form VIII is as shown in FIG. 20. […]

[6] = Acceleration (40° C./75% RH), 1 week
[7] = Acceleration (40° C./75% RH), 2 weeks
[8] = High humidity (92.5% RH), 1 week
[9] = High humidity (92.5% RH), 2 weeks
[10] = High temperature (60° C.), 1 week
[11] = High temperature (60° C.), 2 weeks
[12] = illumination (4500 LuX), 1 week
[13] = illumination (4500 LuX), 2 weeks
[14] = Illumination (4500 Lux), 2 weeks

SMILES: Cc1c(/C=C/c2cc(CN[C@@](C)(CO)C(=O)O)ccc2C(F)(F)F)cccc1-c1ccccc1 [Crystal form C]
- hygroscopicity ([1]; assessment in words): hygroscopic
- weight gain ([1]; from 0% RH to 95% RH): 4.767%
- Solubility ([2]; FaSSIF (rows r12-r14), 0.5 hours, listed as C): 9.1 µg/mL (≈ 19.4 µM)
- Solubility ([2]; FaSSIF (rows r12-r14), 2 hours, listed as C): 2.2 µg/mL (≈ 4.69 µM)
- Solubility ([2]; FaSSIF (rows r12-r14), 24 hours, listed as C): 4.5 µg/mL (≈ 9.58 µM)
- Solubility ([2]; FaSSIF as printed (second set, rows r15-r17), 0.5 hours, listed as C): 181.7 µg/mL (≈ 387 µM)
- Solubility ([2]; FaSSIF as printed (second set, rows r15-r17), 2 hours, listed as C): 174.3 µg/mL (≈ 371 µM)
- Solubility ([2]; FaSSIF as printed (second set, rows r15-r17), 24 hours, listed as C): 166.6 µg/mL (≈ 355 µM)
- Solubility ([2]; SGF, 0.5 hours): 0.3 µg/mL (≈ 0.639 µM)
- Solubility ([2]; SGF, 2 hours): 0.2 µg/mL (≈ 0.426 µM)
- Solubility ([2]; SGF, 24 hours): 0.5 µg/mL (≈ 1.06 µM)
- Solubility ([2]; Water, 0.5 hours): 1.7 µg/mL (≈ 3.62 µM)
- Solubility ([2]; Water, 2 hours): 6.5 µg/mL (≈ 13.8 µM)
- Solubility ([2]; Water, 24 hours): 1.8 µg/mL (≈ 3.83 µM)
- Content [3, 6]: 100.06%
- Total related substances [3, 6]: 0.00%
- Content [3, 7]: 99.89%
- Total related substances [3, 7]: 0.00%
- Content ([3]; Control, −20° C., 2 weeks): 100.00%
- Total related substances ([3]; Control, −20° C., 2 weeks): 0.00%
- Content [3, 8]: 101.55%
- Total related substances [3, 8]: 0.00%
- Content [3, 9]: 100.59%
- Total related substances [3, 9]: 0.00%
- Content [3, 10]: 98.41%
- Total related substances [3, 10]: 0.00%
- Content [3, 11]: 100.18%
- Total related substances [3, 11]: 0.00%
- Content [3, 12]: 102.18%
- Total related substances [3, 12]: 0.52%
- Content [3, 13]: 98.64%
- Total related substances [3, 13]: 1.56%
- Appearance [4, 7]: Off-white
- Crystal form (XRPD) after storage [4, 7]: Crystal form C
- Appearance ([4]; Control, −20° C., 2 weeks): Off-white
- Crystal form (XRPD) after storage ([4]; Control, −20° C., 2 weeks, listed as Crystal form C-Control): Crystal form C
- Appearance [4, 9]: Off-white
- Crystal form (XRPD) after storage [4, 9]: Crystal form C
- Appearance [4, 11]: Off-white
- Crystal form (XRPD) after storage [4, 11]: Crystal form C
- Appearance [4, 14]: Off-white
- Crystal form (XRPD) after storage [4, 14]: Crystal form C
- physical stability ([4]; four storage conditions, 2 weeks (conclusion)): good
- Appearance ([4]; high temperature, high humidity, illumination and acceleration, 2 weeks (conclusion)): off-white
- crystal form after heating [5]: converted into the crystal form A
